According to ChEMBL document CHEMBL1128242, “Polyiodinated triglyceride analogs as potential computed tomography imaging agents for the liver” (J Med Chem, 1995):

What was measured:
Rattus norvegicus [1] = assay: Distribution of radioactivity was determined in lung at 24 hr after intravenous administration of [125I]-labeled 2-oleoglycerol 1,3-Bis-[omega-(3-amino-2,4,6-triiodophenyl)alkanoates] in rats; format: ADME, organism-based; conditions: in vivo
Rattus norvegicus [2] = assay: Analysis of lipid-soluble radioactivity in liver 24 hour after iv administration of [125I]-labeled 2-Oleoyl 1,3-disubstituted Triacylglycerols expressed as %parent compound (by TLC with authentic [125I]-labeled standard) from rat; format: ADME, organism-based; conditions: in vivo
Rattus norvegicus [3] = assay: Distribution of radioactivity was determined in plasma at 24 hr after intravenous administration of [125I]-labeled 2-oleoglycerol 1,3-Bis-[omega-(3-amino-2,4,6-triiodophenyl)alkanoates] in rats; format: ADME, organism-based; parameters: unit not given here; conditions: in vivo
Rattus norvegicus [4] = assay: Distribution of radioactivity was determined in liver at 3h after intravenous administration of 1,3-Disubstituted Triacylglycerols in rats; format: ADME, organism-based; conditions: in vivo
Rattus norvegicus [5] = assay: Distribution of radioactivity was determined in heart at 3h after intravenous administration of [125I]-labeled 2-oleoglycerol 1,3-Bis-[omega-(3-amino-2,4,6-triiodophenyl)alkanoates] in rats; format: ADME, organism-based; conditions: in vivo
Rattus norvegicus [6] = assay: Distribution of radioactivity was determined in heart at 30 min after intravenous administration of [125I]-labeled 2-oleoglycerol 1,3-Bis-[omega-(3-amino-2,4,6-triiodophenyl)alkanoates] in rats; format: ADME, organism-based; conditions: in vivo, 0.5 h
Rattus norvegicus [7] = assay: Distribution of radioactivity was determined in plasma at 3h after intravenous administration of [125I]-labeled 2-oleoglycerol 1,3-Bis-[omega-(3-amino-2,4,6-triiodophenyl)alkanoates] in rats; format: ADME, organism-based; conditions: in vivo
Rattus norvegicus [8] = assay: Distribution of radioactivity was determined in kidney at 30 min after intravenous administration of [125I]-labeled 2-oleoglycerol 1,3-Bis-[omega-(3-amino-2,4,6-triiodophenyl)alkanoates] in rats; format: ADME, organism-based; conditions: in vivo, 0.5 h
Rattus norvegicus [9] = assay: Analysis of lipid-soluble radioactivity in plasma 0.5 hour after iv administration of [125I]-labeled 2-Oleoyl 1,3-disubstituted Triacylglycerols and represented as % CHCl3/CH3OH from rat; format: ADME, organism-based; conditions: in vivo
Rattus norvegicus [10] = assay: Polyacrylamide Gel Electrophoresis (PAGE) to determined the concentration of below albumin(BA) in rats after iv administration of [125I]-labeled 2-Oleolyl 1,3-disubstituted triglycerols was reported; format: ADME, organism-based; conditions: in vivo
Rattus norvegicus [11] = assay: Distribution of radioactivity was determined in liver at 30 min after intravenous administration of 1,3-Disubstituted Triacylglycerols in rats; format: ADME, organism-based; conditions: in vivo, 0.5 h
Rattus norvegicus [12] = assay: Distribution of radioactivity was determined in liver at 24 hr after intravenous administration of 1,3-Disubstituted Triacylglycerols in rats; format: ADME, organism-based; conditions: in vivo
Rattus norvegicus [13] = assay: Distribution of radioactivity was determined in liver at 48 hr after intravenous administration of 1,3-Disubstituted Triacylglycerols in rats; format: ADME, organism-based; conditions: in vivo
Rattus norvegicus [14] = assay: Analysis of lipid-soluble radioactivity in plasma 24 hour after iv administration of [125I]-labeled 2-Oleoyl 1,3-disubstituted Triacylglycerols and represented as % CHCl3/CH3OH from rat; format: ADME, organism-based; conditions: in vivo
Rattus norvegicus [15] = assay: Polyacrylamide Gel Electrophoresis (PAGE) to determined the concentration of albumin(ALB) in rats after iv administration of [125I]-labeled 2-Oleolyl 1,3-disubstituted triglycerols was reported; format: ADME, organism-based; conditions: in vivo
Rattus norvegicus [16] = assay: Distribution of radioactivity was determined in thyroid at 24 hr after intravenous administration of [125I]-labeled 2-oleoglycerol 1,3-Bis-[omega-(3-amino-2,4,6-triiodophenyl)alkanoates] in rats; format: ADME, organism-based, Thyroid gland; conditions: in vivo
Rattus norvegicus [17] = assay: Polyacrylamide Gel Electrophoresis (PAGE) to determined the concentration of low density lipoprotein (LDL) in rats after iv administration of [125I]-labeled 2-Oleolyl 1,3-disubstituted triglycerols was reported; format: ADME, organism-based; conditions: in vivo
Rattus norvegicus [18] = assay: Distribution of radioactivity was determined in blood at 24 hr after intravenous administration of [125I]-labeled 2-oleoglycerol 1,3-Bis-[omega-(3-amino-2,4,6-triiodophenyl)alkanoates] in rats; format: ADME, organism-based; conditions: in vivo
Rattus norvegicus [19] = assay: Distribution of radioactivity was determined in liver at 24 hr after intravenous administration of [125I]-labeled 2-oleoglycerol 1,3-Bis-[omega-(3-amino-2,4,6-triiodophenyl)alkanoates] in rats; format: ADME, organism-based; conditions: in vivo
Rattus norvegicus [20] = assay: Distribution of radioactivity was determined in kidney at 3h after intravenous administration of [125I]-labeled 2-oleoglycerol 1,3-Bis-[omega-(3-amino-2,4,6-triiodophenyl)alkanoates] in rats; format: ADME, organism-based; conditions: in vivo
Rattus norvegicus [21] = assay: Distribution of radioactivity was determined in blood at 30 min after intravenous administration of [125I]-labeled 2-oleoglycerol 1,3-Bis-[omega-(3-amino-2,4,6-triiodophenyl)alkanoates] in rats; format: ADME, organism-based; conditions: in vivo, 0.5 h
Rattus norvegicus [22] = assay: Distribution of radioactivity was determined in lung at 3h after intravenous administration of [125I]-labeled 2-oleoglycerol 1,3-Bis-[omega-(3-amino-2,4,6-triiodophenyl)alkanoates] in rats; format: ADME, organism-based; conditions: in vivo
Rattus norvegicus [23] = assay: Distribution of radioactivity was determined in thyroid at 3h after intravenous administration of [125I]-labeled 2-oleoglycerol 1,3-Bis-[omega-(3-amino-2,4,6-triiodophenyl)alkanoates] in rats; format: ADME, organism-based, Thyroid gland; conditions: in vivo
Rattus norvegicus [24] = assay: Distribution of radioactivity was determined in lung at 30 min after intravenous administration of [125I]-labeled 2-oleoglycerol 1,3-Bis-[omega-(3-amino-2,4,6-triiodophenyl)alkanoates] in rats; format: ADME, organism-based; conditions: in vivo, 0.5 h
Rattus norvegicus [25] = assay: Analysis of lipid-soluble radioactivity in liver 24 hour after iv administration of [125I]-labeled 2-Oleoyl 1,3-disubstituted Triacylglycerols and represented as % CHCl3/CH3OH from rat; format: ADME, organism-based; conditions: in vivo
Rattus norvegicus [26] = assay: Distribution of radioactivity was determined in spleen at 48 hr after intravenous administration of 1,3-Disubstituted Triacylglycerols in rats; format: ADME, organism-based; conditions: in vivo
Rattus norvegicus [27] = assay: Polyacrylamide Gel Electrophoresis (PAGE) to determined the concentration of stacking gel(SG) in rats after iv administration of [125I]-labeled 2-Oleolyl 1,3-disubstituted triglycerols was reported; format: ADME, organism-based; conditions: in vivo
Rattus norvegicus [28] = assay: Distribution of radioactivity was determined in blood at 3h after intravenous administration of [125I]-labeled 2-oleoglycerol 1,3-Bis-[omega-(3-amino-2,4,6-triiodophenyl)alkanoates] in rats; format: ADME, organism-based; conditions: in vivo
Rattus norvegicus [29] = assay: Analysis of lipid-soluble radioactivity in liver 0.5 hour after iv administration of [125I]-labeled 2-Oleoyl 1,3-disubstituted Triacylglycerols expressed as %parent compound (by TLC with authentic [125I]-labeled standard) from rat; format: ADME, organism-based; conditions: in vivo
Rattus norvegicus [30] = assay: Analysis of lipid-soluble radioactivity in liver 0.5 hour after iv administration of [125I]-labeled 2-Oleoyl 1,3-disubstituted Triacylglycerols and represented as % CHCl3/CH3OH from rat; format: ADME, organism-based; conditions: in vivo
Rattus norvegicus [31] = assay: Analysis of lipid-soluble radioactivity in plasma 0.5 hour after iv administration of [125I]-labeled 2-Oleoyl 1,3-disubstituted Triacylglycerols expressed as %parent compound (by TLC with authentic [125I]-labeled standard) from rat; format: ADME, organism-based; conditions: in vivo
Rattus norvegicus [32] = assay: Distribution of radioactivity was determined in blood at 3h after intravenous administration of 1,3-Disubstituted Triacylglycerols in rats; format: ADME, organism-based; conditions: in vivo
Rattus norvegicus [33] = assay: Distribution of radioactivity was determined in spleen at 30 min after intravenous administration of 1,3-Disubstituted Triacylglycerols in rats; format: ADME, organism-based; conditions: in vivo, 0.5 h
Rattus norvegicus [34] = assay: Distribution of radioactivity was determined in blood at 24 hr after intravenous administration of 1,3-Disubstituted Triacylglycerols in rats; format: ADME, organism-based; conditions: in vivo
Rattus norvegicus [35] = assay: Distribution of radioactivity was determined in spleen at 3h after intravenous administration of 1,3-Disubstituted Triacylglycerols in rats; format: ADME, organism-based; conditions: in vivo

CCCCCCCC/C=C/CCCCCCCC(=O)OC(COC(=O)CCCCCCc1c(I)cc(I)c(N)c1I)COC(=O)CCCCCCc1c(I)cc(I)c(N)c1I
Distribution of radioactivity (Rattus norvegicus [1]): 0.29 % dose/g
Lipid-soluble radioactivity (Rattus norvegicus [2]): 0
Distribution of radioactivity (Rattus norvegicus [3]): 0.21
Distribution of radioactivity (Rattus norvegicus [4]): 45.8 % dose/organ
Distribution of radioactivity (Rattus norvegicus [5]): 0.22 % dose/g
Distribution of radioactivity (Rattus norvegicus [6]): 0.55 % dose/g
Distribution of radioactivity (Rattus norvegicus [7]): 0.29 % dose/g
Distribution of radioactivity (Rattus norvegicus [8]): 0.2 % dose/g
Lipid-soluble radioactivity (Rattus norvegicus [9]): 36.1
Radioactivity (Rattus norvegicus [10]): 5.1%
Radioactivity per organ (Rattus norvegicus [11]): 67.7 % dose/organ
Distribution of radioactivity (Rattus norvegicus [12]): 9.6 % dose/organ
Distribution of radioactivity (Rattus norvegicus [13]): 4.4 % dose/organ
Lipid-soluble radioactivity (Rattus norvegicus [14]): 15.3
Radioactivity (Rattus norvegicus [15]): 66.3%
Distribution of radioactivity (Rattus norvegicus [16]): 6.53 % dose/g
Radioactivity (Rattus norvegicus [17]): 0.2%
Distribution of radioactivity (Rattus norvegicus [18]): 0.22 % dose/g
Distribution of radioactivity (Rattus norvegicus [19]): 1.1 % dose/g
Distribution of radioactivity (Rattus norvegicus [20]): 0.18 % dose/g
Distribution of radioactivity (Rattus norvegicus [21]): 0.59 % dose/g
Distribution of radioactivity (Rattus norvegicus [22]): 0.34 % dose/g
Distribution of radioactivity (Rattus norvegicus [23]): 1.69 % dose/g
Distribution of radioactivity (Rattus norvegicus [24]): 0.66 % dose/g
Lipid-soluble radioactivity (Rattus norvegicus [25]): 30.2
Distribution of radioactivity (Rattus norvegicus [26]): 0.3 % dose per organ
Radioactivity (Rattus norvegicus [27]): 28.1%
Distribution of radioactivity (Rattus norvegicus [28]): 0.28 % dose/g
Lipid-soluble radioactivity (Rattus norvegicus [29]): 91.9
Lipid-soluble radioactivity (Rattus norvegicus [30]): 56
Lipid-soluble radioactivity (Rattus norvegicus [31]): 0
Distribution of radioactivity (Rattus norvegicus [32]): 2.7 % dose/organ
Distribution of radioactivity (Rattus norvegicus [33]): 10.5 % dose/organ
Distribution of radioactivity (Rattus norvegicus [34]): 2.5 % dose/organ
Distribution of radioactivity (Rattus norvegicus [35]): 8.2 % dose/organ
